How the values were obtained:
CYP2C9 mRNA = assay: CYP induction in human hepatocytes, CYP2C9 mRNA (RT-PCR); details: for Gene expression Percent of PC (%): 25 µM
Procedure: (§1) […] […] […] Enzyme activity for each CYP isoform was reported as a fold change over vehicle control and the percent of positive control (detailed calculation in Supplementary 1.1). Hepatocytes were harvested with a lysis buffer from RNeasy 96 Kit (Qiagen Inc., Germantown, MD, USA) to isolate RNA, which was analyzed by real-time quantitative polymerase chain reaction (RT-PCR). […] Emax (the maximal observed induction) and EC50 (the concentration that supports half-maximal induction) were estimated by non-linear regression of fold increase in CYP mRNA expression versus concentration plots.
(§2) % of positive control = [(fold change in treated sample)-1] / [(fold change in positive control)-1] × 100
(§3) Based on the gene expression, a minimum of 4-fold increase of positive control compared to vehicle control, a minimum of 2-fold increase of the test article compared vehicle control and increased in a concentration-dependent manner was considered as the cutoff for a positive signal in in vitro induction assay.

CYP2C8 mRNA = assay: in vitro; details: human; for fold induction at 48 h, 25 µM: Gene expression Fold Induction
Procedure: as §1, §2, §3

CYP2C19 = assay: CYP induction in human hepatocytes, CYP2C19 enzyme activity; assay type: in vitro ADME; details: 25 µM
Procedure: as §1
(§4) The fold of vehicle control and the percent of positive control were calculated with the formulas below:
(§5) Fold of vehicle control = CYPs activity of test compound (or positive control) treated sample / CYPs activity of vehicle control treated sample
as §2
(§6) Based on the enzyme activity, a minimum of 2-fold increase compared to vehicle control for the positive control and ≥40% of the positive control for the test article was considered as the cutoff for a positive signal in in vitro induction assay.

CYP2C8 = assay: in vitro; details: human; for fold induction at 48 h, 25 µM: Enzyme activity Fold Induction
Procedure: as §1, §4, §5, §2, §6

CYP2C9 = assay: in vitro; details: human; for fold induction at 48 h, 25 µM: Enzyme activity Fold Induction
Procedure: as §1, §4, §5, §2, §6

OATP1B1 = target: T1, OATP1B1 (Homo sapiens, UniProt Q9Y6L6); assay: OATP1B1 inhibition, β-estradiol 17-(β-D-glucuronide) uptake in transfected HEK293 cells
T1 sequence (Q9Y6L6 1-691): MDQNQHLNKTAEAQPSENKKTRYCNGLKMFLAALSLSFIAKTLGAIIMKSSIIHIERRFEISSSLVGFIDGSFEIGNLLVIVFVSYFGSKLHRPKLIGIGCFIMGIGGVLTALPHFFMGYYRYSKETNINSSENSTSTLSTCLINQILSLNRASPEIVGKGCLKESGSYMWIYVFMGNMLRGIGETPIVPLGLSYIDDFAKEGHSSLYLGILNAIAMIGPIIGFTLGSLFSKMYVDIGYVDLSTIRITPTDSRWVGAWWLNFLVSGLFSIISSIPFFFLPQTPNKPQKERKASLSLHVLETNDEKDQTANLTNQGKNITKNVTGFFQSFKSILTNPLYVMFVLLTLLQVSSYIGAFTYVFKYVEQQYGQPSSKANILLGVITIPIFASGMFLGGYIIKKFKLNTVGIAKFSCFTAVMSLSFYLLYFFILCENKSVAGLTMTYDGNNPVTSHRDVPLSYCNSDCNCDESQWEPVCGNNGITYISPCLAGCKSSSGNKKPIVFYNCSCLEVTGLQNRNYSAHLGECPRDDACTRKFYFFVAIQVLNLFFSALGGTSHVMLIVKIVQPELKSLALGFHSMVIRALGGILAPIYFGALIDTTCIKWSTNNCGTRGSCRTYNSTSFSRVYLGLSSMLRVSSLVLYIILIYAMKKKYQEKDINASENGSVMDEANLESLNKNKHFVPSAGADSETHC
Procedure: (§7) The pre-incubation solutions were removed, and incubation solutions containing the inhibitors and probe substrates (or transport buffer containing an equal volume of vehicle control and probe substrates) were added and incubated at 37°C for 2 min (5 min for OATP1B3). The probe substrate for OAT1 was 4-aminohippuric acid (10 μM), for OAT3 was estrone 3-sulfate (10 μM), for OCT2 was metformin (100 μM), for OATP1B1 was β-estradiol 17-(β-D-glucuronide) (5 μM), for OATP1B3 was β-estradiol 17-(β-D-glucuronide) (10 μM), and for MATE1 and MATE2-K was tetraethylammonium (10 μM). After incubation, cells were washed three times with ice-cold transport buffer (25 mM HEPES, pH 7.4, pH 8.0 for overexpressing MATE1 and MATE2-K HEK293 cells) and lysed in distilled water. The concentrations of probe substrates were determined by LC-MS/MS, and a BCA Kit (Solarbio ®Life Sciences, Beijing, China) was used to determine the protein content in the cell lysate.
(§8) where C is the concentration of the drug in the cell lysate (nM), P is the protein concentration of the cell lysate (mg/mL), and T is the incubation time (minute). Uptake ratetest compound is the uptake rate of the substrate in the presence of the test compound. Uptake ratevehicle control is the uptake rate of the substrate in the presence of the vehicle control. Uptake ratepassive is the uptake rate of the substrate in the presence of the positive inhibitor at the top test concentration.

OATP1B3 = target: T2, OATP1B3 (Homo sapiens, UniProt Q9NPD5); assay: OATP1B3 inhibition, β-estradiol 17-(β-D-glucuronide) uptake in transfected HEK293 cells
T2 sequence (Q9NPD5 1-702): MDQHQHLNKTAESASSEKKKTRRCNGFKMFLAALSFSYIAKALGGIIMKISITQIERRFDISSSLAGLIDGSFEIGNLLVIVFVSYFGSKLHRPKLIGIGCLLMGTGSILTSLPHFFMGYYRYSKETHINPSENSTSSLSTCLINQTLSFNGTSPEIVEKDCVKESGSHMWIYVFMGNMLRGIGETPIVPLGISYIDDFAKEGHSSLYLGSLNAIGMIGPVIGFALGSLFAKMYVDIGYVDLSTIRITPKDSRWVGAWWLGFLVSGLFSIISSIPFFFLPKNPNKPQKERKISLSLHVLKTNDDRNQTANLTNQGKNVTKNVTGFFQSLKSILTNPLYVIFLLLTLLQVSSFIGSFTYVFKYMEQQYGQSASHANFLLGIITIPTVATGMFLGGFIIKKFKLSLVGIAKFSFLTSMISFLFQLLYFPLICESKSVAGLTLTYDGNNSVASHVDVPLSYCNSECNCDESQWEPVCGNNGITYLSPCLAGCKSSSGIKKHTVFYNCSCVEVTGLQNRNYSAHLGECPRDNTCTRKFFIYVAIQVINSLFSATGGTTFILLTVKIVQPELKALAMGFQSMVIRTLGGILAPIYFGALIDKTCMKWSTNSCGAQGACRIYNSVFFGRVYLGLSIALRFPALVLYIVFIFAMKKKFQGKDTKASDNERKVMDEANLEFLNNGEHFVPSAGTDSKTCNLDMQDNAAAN
Procedure: as §7, §8

CYP2B6 mRNA = assay: CYP induction in human hepatocytes, CYP2B6 mRNA (RT-PCR); details: human five, Gene expression Fold Induction, CYP2B6, donor seven, 1000 µM
Procedure: as §1, §2, §3

[1] = Caco-2 bidirectional transport permeability; assay type: in vitro ADME, human; details: human
Procedure: The passage number of cells used in this study was 39. Non-specific binding to the device surfaces and the aqueous solubility of test compounds were tested before the transport experiment. […] The integrity of the monolayer was estimated by measuring transepithelial electrical resistance (TEER). Only the monolayers with TEER over 150 Ω were used for the studies.

CCOC(=O)c1ncn2c1CN(C)C(=O)c1cc(F)ccc1-2 [Flumazenil]
Gene expression Percent of PC (%) (CYP2C9 mRNA; CYP2C9, donor eight): 12.1%
Gene expression Percent of PC (%) (CYP2C9 mRNA; CYP2C9, donor four): 19.7%
Gene expression Percent of PC (%) (CYP2C9 mRNA; CYP2C9, donor one): 25.6%
fold induction at 48 h, 25 µM (CYP2C9 mRNA; female, human): 1.83
fold induction at 48 h, 25 µM (CYP2C9 mRNA; human three, cryopreserved human hepatocytes (donor four)): 1.52
fold induction at 48 h, 25 µM (CYP2C9 mRNA; male, human, cryopreserved human hepatocytes): 1.53
Gene expression Percent of PC (%) (CYP2C8 mRNA; female, 48 h, 25 µM): 15.4%
fold induction at 48 h, 25 µM (CYP2C8 mRNA; female): 1.89
Gene expression Fold Induction (CYP2C8 mRNA; male, 48 h, 25 µM): 0.92 fold
fold induction at 48 h, 25 µM (CYP2C8 mRNA; male): 1.05
Enzyme activity Percent of PC (%) (CYP2C19; CYP2C19, donor eight): -3.72%
Enzyme activity Percent of PC (%) (CYP2C19; CYP2C19, donor four): -3.91%
Enzyme activity Percent of PC (%) (CYP2C19; CYP2C19, donor one): 1.83%
fold induction at 48 h, 25 µM (CYP2C19; human three, cryopreserved human hepatocytes, probe S-(+)-mephenytoin (80 µM), CYP2C19, donor eight): 0.87
Enzyme activity Percent of PC (%) (CYP2C8; female, 48 h, 25 µM): 3.75%
fold induction at 48 h, 25 µM (CYP2C8; female): 1.18
Enzyme activity Fold Induction (CYP2C8; male, 48 h, 25 µM): 1.39 fold
fold induction at 48 h, 25 µM (CYP2C8; male): 1.05
Enzyme activity Percent of PC (%) (CYP2C9; female, 48 h, 25 µM): 6.88%
fold induction at 48 h, 25 µM (CYP2C9; female): 1.11
Enzyme activity Fold Induction (CYP2C9; male, 48 h, 25 µM): 1.14 fold
fold induction at 48 h, 25 µM (CYP2C9; male): 1.05

CO[C@H]1/C=C/O[C@@]2(C)Oc3c(C)c(O)c4c(O)c(c(/C=N/N5CCN(C)CC5)c(O)c4c3C2=O)NC(=O)/C(C)=C\C=C\[C@H](C)[C@H](O)[C@@H](C)[C@@H](O)[C@@H](C)[C@H](OC(C)=O)[C@@H]1C [Rifampicin, reference compound]
IC50 (OATP1B1): 866 nM
Percentage transported (OATP1B1; human, 2 min, 10 μM, pH 7.4): 0.00%
Uptake rate (OATP1B1; human, 2 min, 10 μM, pH 7.4): 3.03±0.536 pmol/mg protein/min
IC50 (OATP1B3): 611 nM
Percentage transported (OATP1B3; human, 5 min, 10 μM, pH 7.4): 0.00%
Uptake rate (OATP1B3; human, 5 min, 10 μM, pH 7.4): 4.46±0.829 pmol/mg protein/min
inhibition at 5 min, 10 µM (OATP1B3; human, pH 7.4): 100%

CCC1(c2ccccc2)C(=O)NC(=O)NC1=O [Phenobarbital]
fold induction at 48 h, 1000 µM (CYP2B6 mRNA): 9.45

COCCc1ccc(OCC(O)CNC(C)C)cc1 (stereo not drawn) [Metoprolol, reference compound]
Papp A→B at 60 min, 10 µM [1]: 39.4 ×10⁻⁶ cm/s
Papp B→A at 60 min, 10 µM [1]: 36.8 ×10⁻⁶ cm/s
efflux ratio at 60 min, 10 µM [1]: 0.935

— article PMC11211886 (Frontiers in Pharmacology, 2024)
